Columns and labels:
Oxytocin receptor [1] = target: T1, Oxytocin receptor (Homo sapiens, UniProt P30559); test: Binding affinity to SNAP-tagged oxytocin receptor (unknown origin) expressed in HEK293 cells assessed as dissociation constant after 5 to 120 mins by TR-FRET assay
T1 sequence (P30559 whole entry): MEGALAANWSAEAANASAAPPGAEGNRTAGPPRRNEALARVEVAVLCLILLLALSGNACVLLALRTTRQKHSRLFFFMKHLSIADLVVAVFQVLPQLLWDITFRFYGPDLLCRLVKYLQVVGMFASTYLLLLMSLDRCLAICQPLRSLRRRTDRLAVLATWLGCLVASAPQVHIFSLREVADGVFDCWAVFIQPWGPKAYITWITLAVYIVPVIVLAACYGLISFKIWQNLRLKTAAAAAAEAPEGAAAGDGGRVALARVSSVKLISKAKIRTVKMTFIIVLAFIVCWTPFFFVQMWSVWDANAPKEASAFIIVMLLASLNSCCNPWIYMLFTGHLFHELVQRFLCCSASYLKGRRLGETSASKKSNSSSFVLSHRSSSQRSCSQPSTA

Oxytocin receptor [2] = target: T1, Oxytocin receptor; test: Binding affinity to SNAP-tagged oxytocin receptor (unknown origin) expressed in HEK293 cells assessed as association constant after 5 to 120 mins by TR-FRET assay; conditions: read-out: kon (M-1-s-1)

koff (Oxytocin receptor [1])	kon (Oxytocin receptor [2])	Structure (SMILES)
0.000182 s⁻¹	67200 M⁻¹ s⁻¹	CCN1\C(=C/C=C/C=C/C2=[N+](CC)c3cc(S(=O)(=O)[O-])ccc3C2(C)C)C(C)(CCCC(=O)NCCOCCOCCOCCOCc2nnc(N3CC(Oc4ccc(F)cc4Cl)C3)n2-c2ccc(OC)nc2)c2cc(S(=O)(=O)O)ccc21 (centres undefined)
0.000315 s⁻¹	59500 M⁻¹ s⁻¹	COc1ccc(-n2c(COCCOCCOCCOCCNC(=O)CCCCCNC(=O)c3ccc(-c4c5ccc(=O)cc-5oc5cc(O)ccc45)c(C(=O)O)c3)nnc2N2CC(Oc3ccc(F)cc3Cl)C2)cn1
